Each compound was assayed against ATX (human His-tagged) (Homo sapiens (Human), UniProt Q13822) (assay: Human ATX enzyme inhibition assay (fluorescence quenching, MR121 substrate)). Conditions: 30 nM ATX, 1 μM MR121 substrate, 30° C., pH 8.0.
Format: biochemical
Protocol: Production of Human Full Length ATX, with and without his Tag
Autotaxin (ATX-ENPP2) Cloning:
cDNA was prepared from commercial human hematopoietic cells total RNA and used as template in overlapping PCR to generate a full length human ENPP2 ORF with or without a 3′-6×His tag. These full length inserts were cloned into the pcDNA3.1V5-His TOPO (Invitrogen) vector. The DNA sequences of several single clones were verified. The DNA from a correct full length clone was used to transfect Hek293 cells for verification of protein expression. […] ATX Fermentation: Recombinant protein was produced by large-scale transient transfection in 20 L controlled stirred tank bioreactors (Sartorius). During cell growth and transfection, temperature, stirrer speed, pH and dissolved oxygen concentration were maintained at 37° C., 120 rpm, 7.1 and 30% DO, respectively. […] Expression was analyzed by Western Blot, enzymatic assay and/or analytical IMAC chromatography. After cooling the cell suspension to 4° C. in a flow-through heat exchanger, cell separation and sterile filtration of supernatant was performed by filtration through Zeta Plus 60M02 E16 (Cuno) and Sartopore 2 XLG (Sartorius) filter units. The supernatant was stored at 4° C. prior to purification. ATX Purification: 20 liter of culture supernatant were conditioned for ultrafiltration by adding Brij 35 to a final concentration of 0.02% and by adjusting the pH to 7.0 using 1 M HCl. Then the supernatant was first microfiltered through a 0.2 μm Ultran-Pilot Open Channel PES filter (Whatman) and afterwards concentrated to 1 liter through an Ultran-Pilot Screen Channel PES filter with 30 kDa MWCO (Whatman). Prior to IMAC chromatography, NiSO4 was added to a final concentration of 1 mM. The cleared supernatant was then applied to a HisTrap column (GE Healthcare) previously equilibrated in 50 mM Na2HPO4 pH 7.0, 0.5 M NaCl, 10% glycerol, 0.3% CHAPS, 0.02% NaN3. The column was washed stepwise with the same buffer containing 20 mM, 40 mM and 50 mM imidazole, respectively. The protein was subsequently eluted using a linear gradient to 0.5 M imidazole in 15 column volumes. ATX containing fractions were pooled and concentrated using an Amicon cell equipped with a 30 kDa PES filter membrane. The protein was further purified by size exclusion chromatography on Superdex S-200 prep grade (XK 26/100) (GE Healthcare) in 20 mM BICINE pH 8.5, 0.15 M NaCl, 10% glycerol, 0.3% CHAPS, 0.02% NaN3. […] The protein was stored at −80° C. […] 10 μL of MR121 substrate solution was added (1 μM final concentration), mixed 30 times and then incubated for 15 minutes at 30° C.

IC50 [nM]	SMILES
14	O=C(c1cc(OCC2CCOCC2)nc(C2CC2)c1)N1C[C@@H]2CN(C(=O)c3ccc4[nH]nnc4c3)C[C@@H]2C1 [Example 2.26, ((3aR,6aS)-5-(1H-benzo[d][1,2,3]triazole-5-carbonyl)hexahydropyrrolo[3,4-c]pyrrol-2(1H)-yl)(2-cyclopropyl-6-((tetrahydro-2H-pyran-4-yl)methoxy)pyridin-4-yl)methanone]
11	O=C(c1cnc(OC2CCCOC2)c(C2CC2)c1)N1C[C@@H]2CN(C(=O)[C@@H]3CCc4[nH]nnc4C3)C[C@H]2C1 (stereo partly drawn) [Example 2.12, ((3aS,6aS)-5-(5-cyclopropyl-6-(tetrahydro-2H-pyran-3-yloxy)nicotinoyl)hexahydropyrrolo[3,4-c]pyrrol-2(1H)-yl)((R)-4,5,6,7-tetrahydro-1H-benzo[d][1,2,3]triazol-5-yl)methanone]
10.5	O=C(c1cnc(OC2CCOC2)c(C2CC2)c1)N1C[C@@H]2CN(C(=O)c3ccc4[nH]nnc4c3)C[C@H]2C1 (stereo partly drawn) [Example 2.05, ((3aS,6aS)-5-(1H-benzo[d][1,2,3]triazole-5-carbonyl)hexahydropyrrolo[3,4-c]pyrrol-2(1H)-yl)(5-cyclopropyl-6-(tetrahydrofuran-3-yloxy)pyridin-3-yl)methanone]
5	CN(C)c1cc(C(=O)N2C[C@@H]3CN(C(=O)c4ccc5[nH]nnc5c4)C[C@H]3C2)cc(OCC2CCOCC2)n1 [Example 2.23, ((3aS,6aS)-5-(1H-benzo[d][1,2,3]triazole-5-carbonyl)hexahydropyrrolo[3,4-c]pyrrol-2(1H)-yl)(2-(dimethylamino)-6-((tetrahydro-2H-pyran-4-yl)methoxy)pyridin-4-yl)methanone]
40	O=C(c1cc(Cl)nc(OCC2CCOCC2)c1)N1C[C@@H]2CN(C(=O)c3ccc4[nH]nnc4c3)C[C@H]2C1 [Example 2.20, ((3aS,6aS)-5-(1H-benzo[d][1,2,3]triazole-5-carbonyl)hexahydropyrrolo[3,4-c]pyrrol-2(1H)-yl)(2-chloro-6-((tetrahydro-2H-pyran-4-yl)methoxy)pyridin-4-yl)methanone]
6	O=C(OCc1c[nH]nn1)N1C[C@H]2CCN(C(=O)c3cc(OCC4CCOCC4)nc(C4CC4)c3)CC[C@H]2C1 [Example 7, 1H-Triazol-4-ylmethyl (3aS,8aR)-6-[2-cyclopropyl-6-(oxan-4-ylmethoxy)pyridine-4-carbonyl]-1,3,3a,4,5,7,8,8a-octahydropyrrolo[3,4-d]azepine-2-carboxylate]
6	O=C(c1cc(OCC2CCOCC2)cc(C2CC2)c1)N1C[C@@H]2CN(C(=O)[C@@H]3CCc4[nH]nnc4C3)C[C@H]2C1 [Example 1.16, ((3aS,6aS)-5-(3-cyclopropyl-5-((tetrahydro-2H-pyran-4-yl)methoxy)benzoyl)hexahydropyrrolo[3,4-c]pyrrol-2(1H)-yl)((R)-4,5,6,7-tetrahydro-1H-benzo[d][1,2,3]triazol-5-yl)methanone]
20	O=C(c1cnc(OC2CCOCC2)c(C2CC2)c1)N1C[C@@H]2CN(C(=O)[C@@H]3CCc4[nH]nnc4C3)C[C@H]2C1 [Example 2.09, ((3aS,6aS)-5-(5-cyclopropyl-6-(tetrahydro-2H-pyran-4-yloxy)nicotinoyl)hexahydropyrrolo[3,4-c]pyrrol-2(1H)-yl)((R)-4,5,6,7-tetrahydro-1H-benzo[d][1,2,3]triazol-5-yl)methanone]
17	O=C(c1ccc(OC2CCOC2)c(C2CC2)c1)N1C[C@@H]2CN(C(=O)[C@@H]3CCc4[nH]nnc4C3)C[C@H]2C1 (stereo partly drawn) [Example 2.02, ((3aS,6aS)-5-(3-cyclopropyl-4-(tetrahydrofuran-3-yloxy)benzoyl)hexahydropyrrolo[3,4-c]pyrrol-2(1H)-yl)((R)-4,5,6,7-tetrahydro-1H-benzo[d][1,2,3]triazol-5-yl)methanone]
10	O=C(c1cc(OCC2CCOCC2)nc(C2CC2)c1)N1C[C@@H]2CN(Cc3ccc4[nH]nnc4c3)C[C@H]2C1 [Example 2.18, ((3aS,6aS)-5-((1H-benzo[d][1,2,3]triazol-5-yl)methyl)hexahydropyrrolo[3,4-c]pyrrol-2(1H)-yl)(2-cyclopropyl-6-((tetrahydro-2H-pyran-4-yl)methoxy)pyridin-4-yl)methanone]
39	O=C(c1cnc(OC2CCOCC2)c(C2CC2)c1)N1C[C@@H]2CN(Cc3ccc4[nH]nnc4c3)C[C@H]2C1 [Example 4.01, ((3aS,6aS)-5-((1H-benzo[d][1,2,3]triazol-5-yl)methyl)hexahydropyrrolo[3,4-c]pyrrol-2(1H)-yl)(5-cyclopropyl-6-(tetrahydro-2H-pyran-4-yloxy)pyridin-3-yl)methanone]
25	O=C(c1cc(OCC2CCOCC2)nc(C2CC2)c1)N1CC[C@@H]2CN(C(=O)c3ccc4[nH]c(=O)oc4c3)C[C@@H]2CC1 [Example 3.02, 6-((3aR,8aS)-6-(2-cyclopropyl-6-((tetrahydro-2H-pyran-4-yl)methoxy)isonicotinoyl)decahydropyrrolo[3,4-d]azepine-2-carbonyl)benzo[d]oxazol-2(3H)-one]
6	NS(=O)(=O)c1ccc(C(=O)N2C[C@H]3CN(C(=O)c4cc(OCC5CCOCC5)nc(C5CC5)c4)C[C@@H]3C2)nc1 [Example 2.14, 6-((3aR,6aR)-5-(2-cyclopropyl-6-((tetrahydro-2H-pyran-4-yl)methoxy)isonicotinoyl)octahydropyrrolo[3,4-c]pyrrole-2-carbonyl)pyridine-3-sulfonamide]
9	NS(=O)(=O)c1ccc(C(=O)N2C[C@H]3CN(C(=O)c4cc(OCC5CCCOC5)nc(C5CC5)c4)C[C@@H]3C2)nc1 (stereo partly drawn) [Example 2.17, 6-((3aR,6aR)-5-(2-cyclopropyl-6-((tetrahydro-2H-pyran-3-yl)methoxy)isonicotinoyl)octahydropyrrolo[3,4-c]pyrrole-2-carbonyl)pyridine-3-sulfonamide]
8	NS(=O)(=O)c1ccc(C(=O)N2C[C@H]3CN(C(=O)c4cc(OCC5CCOCC5)nc(C5CC5)c4)C[C@@H]3C2)cc1F [Example 1.04, 4-((3aR,6aR)-5-(2-cyclopropyl-6-((tetrahydro-2H-pyran-4-yl)methoxy)isonicotinoyl)octahydropyrrolo[3,4-c]pyrrole-2-carbonyl)-2-fluorobenzenesulfonamide]
11	O=C(c1cc(OCC2CCOCC2)nc(C2CC2)c1)N1C[C@@H]2CN(Cc3ccc4[nH]c(=O)oc4c3)C[C@H]2C1 [Example 2.24, 6-(((3aS,6aS)-5-(2-cyclopropyl-6-((tetrahydro-2H-pyran-4-yl)methoxy)isonicotinoyl)hexahydropyrrolo[3,4-c]pyrrol-2(1H)-yl)methyl)benzo[d]oxazol-2(3H)-one]
25	O=C(c1cnc(OC2CCOCC2)c(C2CC2)c1)N1C[C@@H]2CN(C(=O)c3ccc4[nH]c(=O)oc4c3)C[C@H]2C1 [Example 3, 6-((3aS,6aS)-5-(5-Cyclopropyl-6-(tetrahydro-2H-pyran-4-yloxy)nicotinoyl)octahydropyrrolo[3,4-c]pyrrole-2-carbonyl)benzo[d]oxazol-2(3H)-one]

— US9802944B2, “Bicyclic compounds as autotaxin (ATX) and lysophosphatidic acid (LPA) production inhibitors” (Hoffmann-La Roche Inc., priority 2014, dated 2017)
